Reference: a melting point compilation (Tetko et al.; mined from patent text by program, amines drawn as free bases though some values may be those of a salt)

melting point	SMILES
290 to 294 °C	Cc1nc(=O)[nH]c2c(-c3ccccc3)[nH]c(C)c12
186 to 187 °C	CCCC1(S(=O)(=O)CCCN2CCN(C)CC2)C(=O)N(S(=O)(=O)c2ccc3ccccc3c2)C2CCNC21 (stereo not given)
218 to 223 °C	O=C(Nc1ccc(-n2nc(C(F)(F)F)cc2C2CC2)c(F)c1)c1c(Cl)cncc1Cl
211 °C	O=C1C=C(c2c[nH]c3ccc(OCc4ccccc4)cc23)C(=O)N1
94 to 96 °C	Nc1nccn2c(C3CCC3)nc(-c3ccc4cccnc4c3)c12
144 to 145 °C	Cc1cnc(CCc2ccccc2)n2c1c(CCCl)c1ccccc12
196 to 197 °C	CC(=O)OC1C(NC(=O)Cc2cccc3c2Cc2ccccc2-3)C(CO)OC1n1cnc2c(Cl)ncnc21 (stereo not given)
92 to 93 °C	ClC1=NN(c2ccccc2)CC1
98 to 99 °C	O=C1NC(=O)C(Cc2ccc(OCCc3nc(-c4ccccc4)oc3CO)cc2)S1 (stereo not given)
147 to 148 °C	CCC(C(=O)O)c1ccc2c(=O)c3ccccc3ccc2c1 (stereo not given)
111 to 113 °C	O=C(OCC1CCC(COC(=O)c2ccccc2)CC1)c1ccccc1 (stereo not given)
120 to 121 °C	CCO[C@H]1Cc2ccccc2[C@H]1Nc1nc(CC)c(-c2ccc(OC)cc2OC)nc1CC
238 to 240 °C	O=C(NC1CCN(CCc2ccccc2)CC1)c1c[nH]c2ccc(F)cc12
144 °C	Clc1ncnc(Cl)c1-c1ccc(-c2ccccc2)cc1
138 to 140 °C	CC(C)(C)N1CN(Cc2ccccc2)C(N)=C2C=NN=C21
213 to 216 °C	CC(C)n1nc(-c2c(OCCN)nc(N)nc2-c2ccccc2)ccc1=O
200 °C	COc1cc2c(-c3cc4c(Cl)ccnc4[nH]3)cn(CCN3CCC(CCO)CC3)c2cc1OC
211 °C	CC(C)n1cc(-c2nc(C#N)c(N)nc2-c2cccc(F)c2)ccc1=O

melting point	SMILES
187 to 189 °C	O=c1cc(NCCN2CCN(c3cccc(Cl)c3)CC2)cn[nH]1
274 to 278 °C	O=c1[nH]c(=S)c2[nH]cnc2n1Cc1ccc(Cl)cc1
135 to 137 °C	CSc1ccc2ncc(N)c(-c3ccccc3)c2c1
270 °C	CCCC1=C(C#N)C(c2ccccc2Cl)c2c(n[nH]c2C2CC2)N1 (stereo not given)
172 to 174 °C	c1ccc2c(c1)CN(Cc1nc3ccccc3[nH]1)C2
168 to 170 °C	CS(=O)(=O)Nc1n[nH]c(-c2ccncc2)c1-c1ccc(F)cc1
154 °C	CC(C)Cn1nc(-c2ccccc2)c(-c2ccccc2)c1CO
70 to 72 °C	CCSc1cn(C(C)C(=O)N(C)C)nc1-c1ccccc1 (stereo not given)
> 300 °C	CN(C)CC(=O)Nc1ccc2[nH]c(=O)c3ccccc3c2c1
248 °C	O=C1Nc2ccc(Cl)cc2C1(O)c1cccc(F)c1F (stereo not given)
122 °C	CCN1C(=O)CN(c2ccccc2)C1=S
167 °C	COc1ccc2ccc(N3C(=O)c4ccccc4C3OCC(=O)N3CCC(O)CC3)nc2n1 (stereo not given)
122 °C	OCCC1(c2ccc(Cl)c(Cl)c2)CCCNC1 (stereo not given)
164 °C	N#Cc1nn(-c2c(Cl)cc(Cl)cc2Cl)cc1C1CC1(Br)Br (stereo not given)
213 °C	CNc1nc2c(OCc3ccccc3)cccc2n1C
152 to 153 °C	O=C(c1ccccc1CBr)c1ccc(Cl)cc1CBr
200 °C	CCCc1nc(C)nc(O)c1Cc1ccc([N+](=O)[O-])cc1
224 to 227 °C	O=C1c2cc3nnn(Cc4nc5ccccc5s4)c(=O)c3cc2OC2CCCN12 (stereo not given)

Further lines, the molecule ahead of its results:

SMILES	melting point
CC1(C)Cc2sccc2C1N=CNC#N (stereo not given)	118 to 119 °C
O=C(C(=O)c1cccc(C(=O)C(=O)c2ccc(Oc3ccc(Br)cc3)cc2)c1)c1ccc(Oc2ccc(Br)cc2)cc1	120 to 122 °C
COC(=O)c1csnc1-c1cc(C(F)(F)F)cc(C(F)(F)F)c1	45 to 46.5 °C
Cc1cccc(C)c1NC(=O)N=C1N(C)CC(=O)N1C	116 to 118 °C
CCOC(=O)/C=C/c1ccc(OCCOC)cc1Oc1cc(C(F)(F)F)ccc1[N+](=O)[O-]	108 to 110 °C
Cc1cccc2c1C(=O)C(COC(=O)Nc1ccccc1)(COC(=O)Nc1ccccc1)CS2=O (stereo not given)	76 to 82 °C
CCCCC(=NNC(=O)OC(C)(C)C)c1ccncc1	156 °C
O[C@@H]1[C@H](O)[C@H](O)CO[C@H]1n1c(Br)nc2c(F)c(Cl)c(Cl)cc21	165 °C
COc1ccc(C(=O)CSCc2ccncc2)cc1	64 to 65 °C
CCOCc1nc2c(N)nc3cccnc3c2n1CC1(O)CCOCC1	166 to 167 °C
COc1ncccc1-c1cccn2nc(Nc3ccc(C4CCN(C(=O)OC(C)(C)C)CC4)cc3)nc12	101 to 103 °C
COc1cccc(Cc2cnc(-c3ccccc3)c(-c3ccccc3)n2)c1	65 to 66 °C
CC1(C)CCC(C)(C)c2cc3cc(-c4ccc(C(=O)O)s4)ccc3cc21	254 to 255 °C
COc1ccc(-c2ccc(Cl)cc2)cc1COc1cccc2cc(NS(=O)(=O)C(F)(F)F)ccc12	155 to 157 °C
Cc1ccnc(-c2ccoc2)c1OC1SCC(O)C(O)C1O (stereo not given)	95 °C
O=C1CCCC(c2ccc(Cl)cc2)O1 (stereo not given)	110 to 111 °C
O=C(O)C=CCCCc1cccc2cncn12	142 to 144 °C
Cc1nnc(-c2ccc3occ(-c4ccc(C(C)O)cc4)c3c2)o1 (stereo not given)	148 to 149 °C
CCCCC(C=O)(CC)CS(=O)(=O)c1ccccc1C(=O)c1ccccc1 (stereo not given)	135 to 136 °C
CC(NC(=O)c1cc(OCC(F)(F)F)ccc1OCC(F)(F)F)C1CCCCN1 (stereo not given)	95 to 97 °C
COC(=O)c1ccccc1CN1CCN(c2nc(C)c(C(=O)NCc3ccccc3)s2)C1=O	130 to 133 °C
COc1cc2c(cc1O)CC(C)(C)N=C2	152 to 157 °C
O=C(NCc1ccccc1)c1ccc(OC2SCC(O)C(O)C2O)cn1 (stereo not given)	89 to 91 °C

SMILES	melting point
CCCC(=O)Nc1cc(C(Cl)(Cl)Cl)ccn1	88 to 90 °C
O=c1[nH]c2cc(-c3ccncc3)ccc2c(=O)o1	265 to 267 °C
O=C(NCc1ccccc1)N1CC(Oc2cccc(C(F)(F)F)c2)C1	174 to 175 °C
COc1cc2cn(CC(O)CO)nc2cc1OC (stereo not given)	113 to 115 °C
c1ccc(OCCSCc2ncc(-c3ccc(OCCCN4CCCCCC4)cc3)o2)cc1	32 to 35 °C
CCOC(=O)C[C@H](NC(=O)/C=C/C(=O)c1ccccc1)C(=O)OCC	91 to 93 °C
O=C(Nc1ccc(Cl)cc1[N+](=O)[O-])NC1CCCCC1	115 to 116 °C
Cc1cc2c(cc1C(=O)C(C)CC(=O)O)NC(=O)CO2 (stereo not given)	170 to 172 °C
CCCCC(CC(=O)O)C(=O)O (stereo not given)	82 to 83 °C
CN(C)CCc1nc(C(N)=O)c2n1-c1ccc(Cl)cc1C(c1ccccc1Cl)=NC2	249 to 251 °C
CC1CN(N)C(=O)N1C (stereo not given)	162 to 164 °C
Cc1ccc(S(=O)(=O)N[C@@H]2CCCC[C@H]2OCC(=O)O)cc1 (relative stereo)	56 to 58 °C
COc1cc([N+](=O)[O-])c(N)cc1C(N)=O	250 to 257 °C
COc1ccc(C(O)(c2ccc(C(C)C)cc2)C(C)C)c(OC)c1 (stereo not given)	80 to 81 °C
CCCCCCCC[Si](C)(C)CCSCCNC(=O)n1cc(F)c(=O)[nH]c1=O	60 to 61 °C
OCc1ccccc1SCCN1CCN(c2ccccc2)CC1	72 to 74 °C
O=C(O)CCC1OC(=O)C(O)=C1c1ccccc1 (stereo not given)	177 to 179 °C
O=c1n(-c2cccc(Cl)c2)c(=O)n(SC(Cl)(Cl)Cl)n1SC(Cl)(Cl)Cl	153 °C
CCNS(=O)(=O)c1cc(C)c2cc(C(C)C)ccc(C)c1-2	96 to 98 °C
COC(=O)c1c(C(=O)OC)c(-c2cc(OC)c(OC)c(OC)c2)c2c(OC)c(OC)c(OC)cc2c1O	165 to 167 °C
CCC1CC(=O)c2cc(C(C)C(N)=O)ccc2O1 (stereo not given)	148 to 150 °C
O=C1NCc2c1cc1ccc3c(c1c2-c1ccc(F)cc1)OCO3	294 to 297 °C
CC(O)c1cc2cc(O)c(Cl)c(Cl)c2s1 (stereo not given)	173 to 174 °C

SMILES	melting point
NC(=O)C1=CCCNC1	122 to 124 °C
COC(=O)c1ccc(CC(=O)c2ccc3c(c2)C(C)(C)CCC3(C)C)cc1	103 to 104 °C
CC(C)(C)OC(=O)NCc1ccc(-c2ccc(O)c(Br)c2)cc1	113 to 117 °C
COc1ccc2c(c1)C(=O)OC(=O)C2	138 to 140 °C
NS(=O)(=O)CCCSc1ccc2nc(Cl)cn2n1	117 to 118 °C
CC(C)c1nc(-n2cnc3ccccc32)sc1/C=C/C(=O)O	262 to 264 °C
O=C(O)C[C@@H](c1cc(F)cc(F)c1)C(F)(F)F	73 to 75 °C
COc1ccc(NN=C(Sc2ccccc2C)C(C)=O)cc1	112 to 114 °C
CCCCCCC(=O)C=Cc1ccc(O)c(O)c1	114 to 115 °C
O=C(Oc1ccc(OC(=O)c2cc(O)c(O)c(O)c2)c(-c2ccccc2)c1)c1cc(O)c(O)c(O)c1	114 to 116 °C
CN1CCCC(O)(c2cccc3[nH]ccc23)C1 (stereo not given)	250 °C
NS(=O)(=O)c1ccc(-c2oc3ccc(F)cc3c(=O)c2-c2ccccc2)cc1	228 to 229 °C
ON=C1CCC(C2CCCC2)=C1c1cccc(O)c1	207 to 209 °C
CCOc1c(NCc2c(C)cc(C)cc2Cl)c(=O)c1=O	292 to 294 °C
N=c1n(Cc2ccc(Cl)cc2)c2ccc(Cl)cc2n1Cc1ccc(Cl)cc1	175 to 177 °C
Cc1ccc(-c2c3ccccc3c(-c3ccc(C)cc3)c3cc(Cl)ccc23)cc1	202 to 204 °C
Oc1ccc(-c2nc3cc(O)ccc3o2)c(O)c1	> 300 °C
CN1CCN(c2ccc3ncnc(N4CCc5ccc(Cl)cc54)c3c2)CC1	289 to 290 °C
FC(F)(F)c1ccc(-c2ccc(Cl)nn2)cc1	186 to 188 °C
O=C(CNC(=O)c1ccc([N+](=O)[O-])c(I(=O)=O)c1)OCc1ccccc1	196 to 198 °C
CCCN1C(=O)N2CC(CC)N=C2c2c1ncn2C (stereo not given)	124 to 126 °C
Cc1c(C(=O)O)ccc(Oc2cccnc2)c1S(C)(=O)=O	214 to 216 °C
Brc1ccc(N=C(c2ccccc2)c2ccccc2)cc1	82 to 83 °C
